Source: US11738021B2, “Composition and method for preventing, alleviating or treating cancer” (CKP Therapeutics, Inc., priority 2021, dated 2023)

Experiments:
[1] = system: YUMC-C1 cell line xenograft; type: in vivo; details: YUMC-C1 xenograft mice, oral, 13 times over 41 days, doses per Table 3
Protocol: (§1) 15 days after injection of each of the cell lines, when the tumor volume reached about 100 to 200 mm^3, mice having a tumor with the above volume were randomly grouped (n=10/group), and then each drug was administered to the mice 13 times for a total of 41 days under the conditions shown in Table 3 below. […] Here, nothing was administered to the control group.

[2] = system: YUMC-H2 cell line xenograft; details: YUMC-H2 xenograft mice, oral, 13 times over 41 days, doses per Table 3
Protocol: as §1

[3] = system: YUMC-P1 cell line xenograft; details: YUMC-P1 xenograft mice, oral, 13 times over 41 days, doses per Table 3
Protocol: as §1

YUMC-C1 cell line = details: drug alone at 200 μM, FIG. 2
Protocol: Each of the YUMC-C1, YUMC-H2 and YUMC-P1 cell lines of Example 1 was inoculated into 96-well plates at a density of 6×10^3 cells/well and then cultured overnight to a confluence of 90%. […] However, when 1-(2-fluorophenyl)-4,6-dimethyl-1H,2H,3H-pyrrolo[3,2-c]quinoline was used in combination with oxaliplatin or sorafenib, the treatment concentration of each of oxaliplatin and sorafenib was 30 μM. Thereafter, cell viability was measured using the MTT reagent. The absorbance was measured at 550 nm, and viable cells were counted using trypan blue staining.

YUMC-H2 cell line = assay: MTT cell viability, anticancer drug-resistant YUMC-H2 cell line; type: cell-based, human; details: drug alone at 200 μM, FIG. 2
YUMC-P1 cell line = assay: MTT cell viability, anticancer drug-resistant YUMC-P1 cell line; type: cell-based, human; details: drug alone at 200 μM, FIG. 2

Cc1nc2c(C)cccc2c2c1CCN2c1ccccc1F [Candidate 19]
changes in mouse body weight (toxicity) ([1]; FIG. 5): no changes
changes in mouse body weight (toxicity) ([2]; FIG. 5): no changes
changes in mouse body weight (toxicity) ([3]; FIG. 5): no changes

O=C1[O][Pt]2([NH][C@@H]3CCCC[C@H]3[NH]2)[O]C1=O [oxaliplatin]
tumor volume ([1]; vs control, FIG. 3): did not significantly decrease
tumor weight ([1]; vs control, FIG. 4): did not significantly decrease
cells survived (YUMC-C1 cell line): more than 80%

CNC(=O)c1cc(Oc2ccc(NC(=O)Nc3ccc(Cl)c(C(F)(F)F)c3)cc2)ccn1 [sorafenib]
cells survived (YUMC-H2 cell line): more than 80%
cells survived (YUMC-P1 cell line): more than 80%
tumor volume ([2]; FIG. 3): no significant changes
tumor weight ([2]; FIG. 4): no significant changes
tumor volume ([3]; FIG. 3): no significant changes
tumor weight ([3]; FIG. 4): no significant changes
